What was measured:
[1] = target: human DIO1 (type 1 thyroid hormone deiodinase) (Homo sapiens, UniProt P49895); conditions: 1 mM PTU, T4 concentration 5 μM, 37° C. one hour; FIG. 4b
Excerpt: (§1) Using human thyroid-derived cDNA (Marathon Ready cDNA; Clontech) as a template, the following sequences were amplified by PCR: the amino acid coding sequence (cds) of human DIO1 (type 1 thyroid hormone deiodinase) using primer 1 (SEQ ID NO: 17) and primer 2 (SEQ ID NO: 18); DIO1 selenocystein insertion sequence (SECIS) using primer 3 (SEQ ID NO: 19) and primer 4 (SEQ ID NO: 20); human DIO2 cds using primer 5 (SEQ ID NO: 21) and primer 6 (SEQ ID NO: 22); and DIO2 SECIS (Buettner et al., 1998) using primer 7 (SEQ ID NO: 23) and primer 8 (SEQ ID NO: 24).
(§2) The resultant DNAs for human DIO1 cds and human DIO2 cds were inserted into pcDNA3.1 (Invitrogen) individually to thereby obtain plasmids pTB2240 and pTB2242. Further, the resultant DNAs for human DIO1 SECIS and human DIO2 SECIS were inserted into pCR2.1 (Invitrogen) individually to thereby obtain plasmids pTB2241 and pTB2244. DIO1 SECIS and DIO2 SECIS were cut out with restriction enzymes Sca I and Not I (Takara Shuzo) and introduced into DIO1 or DIO2 coding sequence-inserted plasmid pretreated with restriction enzymes Eco RV and Not I (Takara Shuzo) to thereby construct DIO1 expression plasmid pTB2248 and DIO2 expression plasmid pTB2249.
(§3) COS-7 cells (3×10^5) were plated in 6 cm petri dishes. […]

human DIO2 = target: T1, human DIO2 (Homo sapiens, UniProt Q92813); test: Thyroid hormone deiodinase activity (T3 production from T4, T3 RIA) in disrupted COS-7 cells with DIO2 expression plasmid pTB2249; type: biochemical; conditions: FIG. 4c
T1 construct: expressed in transfected cells; host or cells: COS-7 cells, transiently transfected with pTB2249 (pcDNA3.1 backbone), sonicated to disrupted cells
T1 sequence (Q92813 1-273): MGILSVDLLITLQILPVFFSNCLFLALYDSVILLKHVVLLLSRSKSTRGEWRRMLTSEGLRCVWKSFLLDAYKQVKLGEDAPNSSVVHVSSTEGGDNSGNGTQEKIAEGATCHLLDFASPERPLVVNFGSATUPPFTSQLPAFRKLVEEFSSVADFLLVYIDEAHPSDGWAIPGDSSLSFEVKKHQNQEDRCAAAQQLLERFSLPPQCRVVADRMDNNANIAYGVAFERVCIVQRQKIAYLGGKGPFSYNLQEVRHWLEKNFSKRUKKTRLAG
Excerpt: as §1, §2, §3

[2] = tested on: Normal human articular chondrocytes of knee (NHAC-kn); test: Induction of alkaline phosphatase activity in normal human articular chondrocytes of knee by T3; type: cell-based; conditions: NHAC-kn cells, 0.05-50 nM T3, 6 days; FIG. 2
Description: Normal human articular chondrocytes of knee (NHAC-kn; Clonetics) were plated on gelatin-coated 24-well plates (Iwaki) at 2×10^5 cells/well and cultured in DMEM high glucose medium (Gibco) containing 1 μg/ml insulin, 1 μg/ml transferin, 1 ng/ml selenious acid (these components were contained in ITS; BD Bioscience), 1 mg/ml BSA, 50 μg/ml ascorbic acid phosphate magnesium salt n-hydrate (Wako) and 5 mM β-glycerophosphate in a CO2 incubator under 5% CO2 at 37° C. with addition of 0.05-50 nM T3 (triiodothyronine) (Sigma) if necessary. After 6 days, the culture broth was removed from cells and 200 μl of 10 mM Tris-HCl (pH 7.4) containing 0.1% Triton X-100 was added to each well. Then, cells were shaken at 4° C. for 1 hour on a horizontal shaker to thereby extract proteins from the cell layer. The alkaline phosphatase (AP) activity of the extract was determined from the yield of p-nitrophenol using p-nitrophenylphosphate as a substrate (Sigma). The protein content in the extract was measured with BCA protein assay reagent (Pierce) to thereby calculate the AP activity per a specific amount of protein.

[3] = tested on: Normal human articular chondrocytes of knee (NHAC-kn); test: Induction of MMP13 gene expression in normal human articular chondrocytes of knee by T3; type: cell-based; conditions: NHAC-kn cells, 0.1-10 nM T3, 6 days; FIG. 3
Description: Normal human articular chondrocytes of knee (NHAC-kn; Clonetics) were plated on gelatin-coated 96-well plates (Iwaki) at 2×10^5 cells/well and cultured in DMEM high glucose medium (Gibco) containing 1 μg/ml insulin, 1 μg/ml transferin, 1 ng/ml selenious acid (these components were contained in ITS; BD Bioscience) and 1 mg/ml BSA, and supplemented with 5 mM β-glycerophosphate (Sigma), 50 μg/ml ascorbic acid phosphate magnesium salt n-hydrate (Wako) and, if necessary, 0.1-10 nM T3 (triiodothyronine) (Sigma), in a CO2 incubator under 5% CO2 at 37° C. After 6 days, RNA was extracted from cells using RNeasy (Qiagen) according to the attached protocol. Using the total RNA as a template, cDNA was synthesized from random primers with TaqManreverse transcription reagent (Applied Biosystems). Subsequently, 2 μl of the reaction solution containing cDNA was mixed with a 2 μl reaction solution containing 0.34 μM of two primers (SEQ ID NO: 15 and SEQ ID NO: 16) and 1×PCR Master Mix (Applied Biosystems) and subjected to PCR. […]
The PCR was performed with ABI7700 sequence detector (Applied Biosystems). The number of copies of MMP13 cDNA was measured by real-time monitoring the amount of the PCR product. The number of copies of β-actin cDNA was also measured in the same manner using TaqMan β-actin control reagent (Applied Biosystems) and used as internal standard. […]

Chain of human DIO1 (type 1 thyroid hormone deiodinase) (P49895 whole entry): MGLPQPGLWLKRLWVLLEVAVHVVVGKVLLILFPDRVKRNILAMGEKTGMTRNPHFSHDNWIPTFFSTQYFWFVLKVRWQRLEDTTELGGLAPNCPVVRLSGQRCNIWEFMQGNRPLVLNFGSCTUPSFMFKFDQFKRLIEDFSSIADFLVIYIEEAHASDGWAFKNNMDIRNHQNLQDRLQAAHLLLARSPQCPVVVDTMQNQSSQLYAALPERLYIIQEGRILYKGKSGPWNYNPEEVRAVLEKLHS

SMILES: CCCc1cc(=O)[nH]c(=S)[nH]1 [PTU, propylthiouracil]
- inhibition of DIO1 activity (T3 production) [1]: completely inhibited
- influence on DIO2 activity of pTB2249 (T3 production) (human DIO2; 1 mM PTU, 37° C. one hour): influenced little

SMILES: N[C@@H](Cc1cc(I)c(Oc2ccc(O)c(I)c2)c(I)c1)C(=O)O [T3, triiodothyronine]
- alkaline phosphatase (AP) activity of cell layer extract per amount of protein [2]: induced in a T3 concentration-dependent manner
- mRNA of MMP13 (number of copies of MMP13 cDNA normalized with β-actin) [3]: induced in a T3 concentration-dependent manner

SMILES: N[C@@H](Cc1ccc(Oc2cc(I)c(O)c(I)c2)c(I)c1)C(=O)O [rT3, riverse triiodothyronine]
- inhibition of DIO2 activity of pTB2249 (T3 production) (human DIO2; rT3 5 μM, competition with T4, 37° C. one hour): partially inhibited
